The values below come from paper PMC11201819 (Protein Science : A Publication of the Protein Society, 2024).

The target of data set [1] is T1, CLsoDHDPS (dihydrodipicolinate synthase) (Candidatus Liberibacter solanacearum, UniProt A0A0F4VK59).
T1 construct: gene dapA
In words: biochemical.

The target in data set [2] is T1, CLsoDHDPS (dihydrodipicolinate synthase). In words: biochemical. This is another data set of the same source.
The test system of data set [3] is N[C@@H](CC=O)C(=O)O. In words: purified protein.
Data set [4] addresses T1, CLsoDHDPS (dihydrodipicolinate synthase). The format is binding.

T1 sequence (A0A0F4VK59 1-296): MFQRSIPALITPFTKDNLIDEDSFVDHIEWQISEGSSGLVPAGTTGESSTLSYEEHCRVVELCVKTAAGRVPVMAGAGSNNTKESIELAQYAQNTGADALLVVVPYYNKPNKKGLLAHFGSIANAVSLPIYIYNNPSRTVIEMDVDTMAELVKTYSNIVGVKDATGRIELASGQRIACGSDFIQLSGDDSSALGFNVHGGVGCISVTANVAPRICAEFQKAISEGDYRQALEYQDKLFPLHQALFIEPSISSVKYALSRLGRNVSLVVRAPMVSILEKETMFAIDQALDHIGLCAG

`CC(=O)C(=O)O` [pyruvate]: in data set [1], binding was characterised by a dissociation constant (Kd) of 2 ± 0.7 µM.

In the case of `NCCCC[C@H](N)C(=O)O` [lysine], in data set [2], the affinity, expressed as Ki, was 121 ± 5 µM.

As for “CLsoDHDPS (dihydrodipicolinate synthase) (Candidatus Liberibacter solanacearum)”, in data set [3], the Km was determined as 33 ± 3 µM, the kcat was 6 ± 0.2 s⁻¹ and the kcat/Km is 180000 M⁻¹ s⁻¹.

As to `O=CCCC(=O)O` [SSA, succinic semi‐aldehyde], in data set [4], the “X-ray crystal structure (1.93 Å) with pyruvate” value was “continuous density between Lys162, pyruvate, and succinic semi‐aldehyde such that the carbon–carbon bond between these substrates has formed”.
